Assay results as given in paper PMC7949057, “The cytoprotective protein MANF promotes neuronal survival independently from its role as a GRP78 cofactor” (The Journal of Biological Chemistry, 2021).
Positions count from the first letter of the chain named.

Assays:
Format in all cases: binding
MANF [1] = molecular target: T1, MANF (Homo sapiens, UniProt P55145); experiment: microscale thermophoresis
T1 construct: mature secreted protein (about 18 kDa, signal peptide cleaved), made in CHO-derived cells (QMCF, Icosagen), no tag told; amine-labelled with RED-NHS for MST
T1 sequence (P55145 25-182): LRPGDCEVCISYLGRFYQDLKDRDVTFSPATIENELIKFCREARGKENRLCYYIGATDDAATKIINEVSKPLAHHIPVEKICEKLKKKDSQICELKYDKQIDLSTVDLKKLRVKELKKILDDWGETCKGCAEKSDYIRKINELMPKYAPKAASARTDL
Source text: microscale thermophoresis on MANF | MANF did interact with ADP, ATP, and AMP–PNP with Kd-s of […]

C-MANF = molecular target: T2, C-MANF (Homo sapiens, UniProt P55145); experiment: […]-HSQC NMR chemical shift perturbation; settings: 100 μM C-MANF, ATP:protein 0.5 to 10; 20 mM sodium phosphate pH 6.5, 50 mM NaCl; 25 °C; site at V134, K135
T2 sequence (P55145 120-182 limits assumed): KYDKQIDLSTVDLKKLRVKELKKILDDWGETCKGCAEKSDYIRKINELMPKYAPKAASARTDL

MANF [2] = molecular target: T3, MANF (Homo sapiens, UniProt P55145, V137G/K138A, form not given); experiment: microscale thermophoresis; settings: labelled MANF 50 nM; 10 mM Na-phosphate pH 7.4, 1 mM MgCl2, 3 mM KCl, 150 mM NaCl, 0.05% Tween-20; 25 °C; 1:1 fit
T3 construct: mature secreted protein (about 18 kDa, signal peptide cleaved), made in CHO-derived cells (QMCF, Icosagen), no tag told; amine-labelled with RED-NHS for MST
T3 sequence (P55145 25-182 V137G/K138A): T1 sequence (P55145 25-182) with V113G, K114A
Source text: microscale thermophoresis on MANF | the mutant was able to bind ATP similarly to the wild-type MANF

GRP78 = molecular target: T4, GRP78 (Cricetulus griseus, UniProt G3I8R9); experiment: fluorescent nucleotide release (ex […] nm, em […] nm); settings: labelled compound; GRP78 1.25 μM, MABA-ADP 1.25 μM, chase ATP 125 μM, no MANF; 50 mM HEPES-KOH pH 7.4, 100 mM KCl, 10 mM MgCl2
T4 construct: gene HSPA5; full-length recombinant, N-terminal His-tag, labelled with RED-tris-NTA for MST
T4 sequence (G3I8R9 19-654): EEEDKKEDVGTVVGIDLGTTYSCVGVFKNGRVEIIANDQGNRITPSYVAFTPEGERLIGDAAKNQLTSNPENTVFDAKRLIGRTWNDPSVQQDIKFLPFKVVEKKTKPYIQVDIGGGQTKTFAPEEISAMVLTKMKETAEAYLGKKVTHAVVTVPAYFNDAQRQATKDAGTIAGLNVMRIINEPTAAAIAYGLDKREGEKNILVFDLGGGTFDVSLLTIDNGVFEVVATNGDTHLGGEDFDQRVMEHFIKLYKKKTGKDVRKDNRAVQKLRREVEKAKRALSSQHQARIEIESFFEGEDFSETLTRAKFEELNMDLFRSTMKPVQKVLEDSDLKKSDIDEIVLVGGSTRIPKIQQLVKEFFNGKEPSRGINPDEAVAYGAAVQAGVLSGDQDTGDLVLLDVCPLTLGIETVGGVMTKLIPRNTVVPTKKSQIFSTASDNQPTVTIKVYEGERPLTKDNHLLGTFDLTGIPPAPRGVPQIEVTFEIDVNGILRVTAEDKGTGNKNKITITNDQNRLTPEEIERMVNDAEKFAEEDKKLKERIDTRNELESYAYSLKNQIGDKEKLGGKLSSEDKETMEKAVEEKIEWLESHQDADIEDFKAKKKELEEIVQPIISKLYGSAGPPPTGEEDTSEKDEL

Kd (MANF [1]) [µM]	Kd (MANF [2]) [µM]	SMILES	15N-HSQC NMR chemical shift perturbation (C-MANF)	koff (GRP78)
880 ± 280		Nc1ncnc2c1ncn2[C@@H]1O[C@H](COP(=O)(O)OP(=O)(O)O)[C@@H](O)[C@H]1O [ADP]		
560 ± 170		Nc1ncnc2c1ncn2[C@@H]1O[C@H](COP(=O)(O)OP(=O)(O)NP(=O)(O)O)[C@@H](O)[C@H]1O [AMP–PNP]		
830 ± 390	339 ± 160	Nc1ncnc2c1ncn2[C@@H]1O[C@H](COP(=O)(O)OP(=O)(O)OP(=O)(O)O)[C@@H](O)[C@H]1O [ATP]	the ATP binding site is located at the C-terminal domain of MANF	
		CNc1ccccc1C(=O)NCCCCNc1nc2c(N)ncnc2n1[C@@H]1O[C@H](COP(=O)(O)OP(=O)(O)O)[C@@H](O)[C@H]1O [MABA–ADP]		determine the mean koff rates of MABA–ADP release
